# ChEMBL document CHEMBL1156040, “Identification and optimisation of novel and selective small molecular weight kinase inhibitors of mTOR” (Bioorg Med Chem Lett, 2009)
# Assays:
# MDR1 (human) = assay: Apparent permeability from apical to basolateral side in MDCK2 cells expressing human MDR1 at 10 uM; type: ADME, cell-based, Canis lupus familiaris, MDCK-II; conditions: dog, MDCK-MDR1
# [1] = molecular target: T1, Serine/threonine-protein kinase mTOR (Homo sapiens, UniProt P42345); assay: Inhibition of mTOR kinase in human HeLa cells at 10 uM by ELISA; type: cell-based; set-up: scale not given: the % may be the effect or the level left
# [2] = molecular target: T1, Serine/threonine-protein kinase mTOR; assay: Inhibition of mTOR kinase in human HeLa cells by ELISA; type: cell-based
# [3] = molecular target: Phosphatidylinositol 4,5-bisphosphate 3-kinase catalytic subunit alpha isoform (Homo sapiens, UniProt P42336); assay: Inhibition of PI3Kalpha kinase
# [4] = molecular target: Serine-protein kinase ATM (Homo sapiens, UniProt Q13315); assay: Inhibition of ATM
# [5] = Growth inhibition of human U87MG cells; type: functional, U-87MG ATCC; conditions: U-87 MG
# Chain of Phosphatidylinositol 4,5-bisphosphate 3-kinase catalytic subunit alpha isoform (P42336 whole entry, canonical isoform): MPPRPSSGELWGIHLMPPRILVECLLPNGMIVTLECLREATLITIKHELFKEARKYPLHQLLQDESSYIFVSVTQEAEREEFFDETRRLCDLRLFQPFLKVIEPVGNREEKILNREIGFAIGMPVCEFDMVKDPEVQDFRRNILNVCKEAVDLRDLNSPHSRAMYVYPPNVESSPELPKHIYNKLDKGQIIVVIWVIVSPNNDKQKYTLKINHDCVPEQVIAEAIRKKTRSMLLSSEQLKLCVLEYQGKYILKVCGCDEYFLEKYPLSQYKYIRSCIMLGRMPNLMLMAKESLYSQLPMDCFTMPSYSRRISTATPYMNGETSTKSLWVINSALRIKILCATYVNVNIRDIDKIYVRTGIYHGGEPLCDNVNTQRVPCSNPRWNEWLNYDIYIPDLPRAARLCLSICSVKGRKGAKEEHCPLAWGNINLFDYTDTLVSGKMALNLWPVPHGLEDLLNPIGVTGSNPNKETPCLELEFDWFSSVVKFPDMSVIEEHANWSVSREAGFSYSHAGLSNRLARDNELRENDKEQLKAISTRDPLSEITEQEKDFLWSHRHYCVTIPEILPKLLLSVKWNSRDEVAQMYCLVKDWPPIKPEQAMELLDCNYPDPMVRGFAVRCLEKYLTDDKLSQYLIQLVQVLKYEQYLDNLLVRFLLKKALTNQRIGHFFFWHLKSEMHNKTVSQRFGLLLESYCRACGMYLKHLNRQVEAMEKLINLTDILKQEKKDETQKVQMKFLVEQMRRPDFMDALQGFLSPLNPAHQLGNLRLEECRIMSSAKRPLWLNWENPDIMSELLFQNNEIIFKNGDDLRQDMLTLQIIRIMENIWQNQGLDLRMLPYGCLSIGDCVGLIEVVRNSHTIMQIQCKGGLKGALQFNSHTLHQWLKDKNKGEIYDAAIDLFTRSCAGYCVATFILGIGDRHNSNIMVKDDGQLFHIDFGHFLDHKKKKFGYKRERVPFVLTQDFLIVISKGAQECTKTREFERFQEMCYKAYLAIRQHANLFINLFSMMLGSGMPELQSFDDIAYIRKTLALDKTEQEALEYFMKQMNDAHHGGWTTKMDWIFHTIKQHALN
# Chain of Serine-protein kinase ATM (Q13315 whole entry): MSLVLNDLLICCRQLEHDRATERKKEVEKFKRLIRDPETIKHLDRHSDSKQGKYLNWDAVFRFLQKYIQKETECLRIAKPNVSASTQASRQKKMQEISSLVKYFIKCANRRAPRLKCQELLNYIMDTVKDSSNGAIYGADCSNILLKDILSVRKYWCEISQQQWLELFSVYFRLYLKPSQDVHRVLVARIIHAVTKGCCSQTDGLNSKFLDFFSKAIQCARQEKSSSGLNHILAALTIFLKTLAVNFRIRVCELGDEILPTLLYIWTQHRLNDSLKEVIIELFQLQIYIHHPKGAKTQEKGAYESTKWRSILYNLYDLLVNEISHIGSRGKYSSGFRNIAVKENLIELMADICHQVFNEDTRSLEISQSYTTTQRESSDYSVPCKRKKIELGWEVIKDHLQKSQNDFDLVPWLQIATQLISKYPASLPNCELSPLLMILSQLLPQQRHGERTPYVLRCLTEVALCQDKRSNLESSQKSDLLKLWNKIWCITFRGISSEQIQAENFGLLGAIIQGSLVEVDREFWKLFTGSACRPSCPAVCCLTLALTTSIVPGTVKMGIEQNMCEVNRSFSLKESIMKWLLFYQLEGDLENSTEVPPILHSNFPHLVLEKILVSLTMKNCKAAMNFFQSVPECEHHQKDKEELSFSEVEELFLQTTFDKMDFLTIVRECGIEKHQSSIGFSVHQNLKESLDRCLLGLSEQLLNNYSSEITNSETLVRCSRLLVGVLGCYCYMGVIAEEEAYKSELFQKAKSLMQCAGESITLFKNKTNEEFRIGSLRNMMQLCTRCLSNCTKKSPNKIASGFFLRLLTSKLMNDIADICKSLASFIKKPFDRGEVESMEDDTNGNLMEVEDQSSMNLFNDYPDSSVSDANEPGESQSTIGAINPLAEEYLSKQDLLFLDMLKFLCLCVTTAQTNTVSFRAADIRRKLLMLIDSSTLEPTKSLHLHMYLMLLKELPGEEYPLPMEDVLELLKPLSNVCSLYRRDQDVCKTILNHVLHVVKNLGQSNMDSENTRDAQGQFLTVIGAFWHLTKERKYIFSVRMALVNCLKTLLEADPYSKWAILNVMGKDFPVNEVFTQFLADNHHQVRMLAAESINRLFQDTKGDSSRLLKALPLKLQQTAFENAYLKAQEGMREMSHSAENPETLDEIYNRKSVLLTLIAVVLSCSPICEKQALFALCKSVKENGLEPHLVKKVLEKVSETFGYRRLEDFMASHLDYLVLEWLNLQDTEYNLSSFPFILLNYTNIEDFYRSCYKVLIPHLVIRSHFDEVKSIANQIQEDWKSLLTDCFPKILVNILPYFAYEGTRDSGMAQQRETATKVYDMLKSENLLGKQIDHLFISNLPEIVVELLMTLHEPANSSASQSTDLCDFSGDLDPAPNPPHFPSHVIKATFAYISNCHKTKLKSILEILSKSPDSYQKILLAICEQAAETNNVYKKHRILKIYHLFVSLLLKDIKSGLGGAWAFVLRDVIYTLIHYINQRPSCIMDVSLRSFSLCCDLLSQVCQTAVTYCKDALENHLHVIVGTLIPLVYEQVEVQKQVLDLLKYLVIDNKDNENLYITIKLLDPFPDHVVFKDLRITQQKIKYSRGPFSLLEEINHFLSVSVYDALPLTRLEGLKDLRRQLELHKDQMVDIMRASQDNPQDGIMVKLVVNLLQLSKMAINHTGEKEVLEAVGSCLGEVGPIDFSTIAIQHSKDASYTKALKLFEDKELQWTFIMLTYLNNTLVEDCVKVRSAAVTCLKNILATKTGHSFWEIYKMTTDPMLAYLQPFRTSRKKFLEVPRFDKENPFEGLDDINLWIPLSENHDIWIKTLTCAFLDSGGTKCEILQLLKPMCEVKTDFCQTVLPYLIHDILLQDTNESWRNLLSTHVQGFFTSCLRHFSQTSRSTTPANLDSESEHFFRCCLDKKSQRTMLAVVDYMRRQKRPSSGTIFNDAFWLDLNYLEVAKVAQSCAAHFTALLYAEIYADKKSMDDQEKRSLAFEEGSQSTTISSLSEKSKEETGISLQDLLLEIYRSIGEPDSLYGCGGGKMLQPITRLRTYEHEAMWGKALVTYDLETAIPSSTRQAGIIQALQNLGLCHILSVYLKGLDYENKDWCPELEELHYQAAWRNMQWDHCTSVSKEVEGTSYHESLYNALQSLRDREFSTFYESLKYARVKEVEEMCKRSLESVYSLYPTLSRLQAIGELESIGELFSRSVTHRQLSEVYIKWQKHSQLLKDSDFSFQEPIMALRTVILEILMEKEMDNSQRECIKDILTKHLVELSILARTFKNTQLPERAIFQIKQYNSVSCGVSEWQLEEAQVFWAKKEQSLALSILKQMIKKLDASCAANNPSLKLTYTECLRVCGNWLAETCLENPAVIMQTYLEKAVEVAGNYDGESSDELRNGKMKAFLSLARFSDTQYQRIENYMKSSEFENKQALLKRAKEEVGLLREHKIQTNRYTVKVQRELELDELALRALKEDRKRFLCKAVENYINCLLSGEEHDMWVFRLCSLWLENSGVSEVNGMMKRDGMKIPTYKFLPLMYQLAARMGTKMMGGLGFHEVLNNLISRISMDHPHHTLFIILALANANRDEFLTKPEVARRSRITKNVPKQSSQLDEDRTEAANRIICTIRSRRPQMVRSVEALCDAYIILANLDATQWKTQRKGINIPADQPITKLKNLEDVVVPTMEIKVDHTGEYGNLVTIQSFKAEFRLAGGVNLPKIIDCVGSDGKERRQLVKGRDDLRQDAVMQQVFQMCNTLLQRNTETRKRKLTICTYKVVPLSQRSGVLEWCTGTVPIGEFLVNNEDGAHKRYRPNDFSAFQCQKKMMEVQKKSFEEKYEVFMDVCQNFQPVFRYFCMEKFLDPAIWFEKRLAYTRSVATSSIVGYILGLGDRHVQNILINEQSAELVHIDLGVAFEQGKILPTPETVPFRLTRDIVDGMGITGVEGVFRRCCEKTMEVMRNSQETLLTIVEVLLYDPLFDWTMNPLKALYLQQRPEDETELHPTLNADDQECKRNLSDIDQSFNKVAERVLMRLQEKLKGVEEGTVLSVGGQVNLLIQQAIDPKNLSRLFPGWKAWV
structure (smiles),measurement,setting,value
Oc1cccc(-c2ccc(-c3cc(N4CCOCC4)nc(N4CCOCC4)n3)o2)c1,Papp A→B at 10 µM,MDR1 (human),2.2 ×10⁻⁶ cm/s
COc1cc(-c2cnn(-c3ccnc(N4CCOCC4)n3)c2)cc(OC)c1O,Activity,[1],< 50%
COc1cc(/C=N/Nc2nc(N3CCOCC3)nc(N3CCOCC3)n2)cc(OC)c1O,IC50,[2],0.27 µM
same,IC50,[3],> 10 µM
same,IC50,[4],> 10 µM
COc1cc(-c2ccc(-c3ccnc(N4CCOCC4)n3)s2)cc(OC)c1O,Activity,[1],< 50%
COc1cc(-c2ccc(-c3cc(N4CCOCC4)nc(N4CCOCC4)n3)o2)cc(OC)c1O,IC50,[2],0.023 µM
same,IC50,[3],> 10 µM
same,GI50,[5],16 µM
COc1cc(-c2cn(-c3nc(N4CCOCC4)nc(N4CCOCC4)n3)cn2)cc(OC)c1O,IC50,[3],> 10 µM
same,GI50,[5],24 µM
c1cc2cc(-c3ccc(-c4cc(N5CCOCC5)nc(N5CCOCC5)n4)o3)ccc2[nH]1,IC50,[2],> 10 µM
OCc1cccc(-c2ccc(-c3cc(N4CCOCC4)nc(N4CCOCC4)n3)o2)c1,Papp A→B at 10 µM,MDR1 (human),33 ×10⁻⁶ cm/s
COc1cc(-c2ccc(-c3ccnc(N4CCOCC4)n3)o2)cc(OC)c1O,IC50,[2],0.052 µM
same,IC50,[3],> 10 µM
same,GI50,[5],3.7 µM
COc1cc(-c2csc(-c3ccnc(N4CCOCC4)n3)n2)cc(OC)c1O,IC50,[2],0.18 µM
same,IC50,[3],> 10 µM
same,GI50,[5],21 µM
